Where a name gives a salt, the structure may show the parent alone. Read-outs that look alike come from different tables or passages of the source.
Assays:
[1] = system: PHA blast cells from non-autologous healthy donor; experiment: Non-autologous specific cytotoxicity after allogeneic MLR (Calcein-AM); assay type: cell-based, human; conditions: E/T ratio 90
Description: The PBMCs derived from a non-autologous healthy donor, prepared in item (2) of Example 6, were adjusted with 5HRPMI to 1×10^6 cells/mL, and seeded to a 6-well cell culture plate (manufactured by Corning Inc.) in a volume of 3 mL each. IL-2 was added thereto to a final concentration of 100 U/mL and phytohemaaglutinin (manufactured by Sigma, hereinafter referred to as PHA) was added thereto to a final concentration of 2 μg/mL, and the cells were cultured at 37° C. in 5% CO2. On day 4 of culture, 12 mL of 5HRPMI was added to the cell culture and IL-2 was added thereto to a final concentration of 100 U/mL. Thereafter, the cell culture was dispensed into a 6-well cell culture plate so as to have a volume of 5 mL/well. The culture was continued until day 7 of culture, thereby preparing PHA blast (blastogenic) cells.
Using the cells on day 7 of culture prepared in item (3) of Example 6, non-autologous specific cytotoxicity was assayed in the same manner as in item (5) of Example 2, except that the PHA blast cells which had been subjected to blastogenic cells in item (4) of Example 6 were used as the target cells which were incubated at 37° C. for 2 hours after addition of calcein-AM. These calcein-labeled target cells were mixed with a 30-fold amount of K562 cells, and the cytotoxicity was assayed using these target cells for determining the cytotoxicity. […]

[2] = system: X-ray irradiated PBMCs derived from an allogeneic donor (stimulator cells); experiment: Allogeneic mixed lymphocyte reaction (MLR) using cultured lymphocytes (expansion fold); assay type: cell-based, human
[3] = system: lymphocytes expanded from PBMC of cancer patient; experiment: Flow cytometry analysis of naive T-like cell phenotypes in expanded lymphocytes; assay type: cell-based, human; conditions: Example 5
Description: The cells on days 10 and 14 of culture, prepared in item (3) of Example 2, were washed with DPBS containing 1% bovine serum albumin (BSA, manufactured by Sigma) (hereinafter referred to as 1% BSA/DPBS) or DPBS, and the cells were suspended in 1% BSA/DPBS, then FITC labeled mouse IgG1/RD1 labeled mouse IgG1/PC5 labeled mouse IgG1 (manufactured by Beckman Coulter Inc.) were added thereto as a negative control. Similarly, cells added with RD1 labeled mouse anti-human CD45RA antibody (manufactured by Beckman Coulter Inc.)/FITC labeled mouse anti-human CCR7 antibody (manufactured by R&D Systems), cells added with RD1 labeled mouse anti-human CD45RA antibody/FITC labeled mouse anti-human CD28 antibody (manufactured by eBioscience, Inc.)/PC5 labeled mouse anti-human CD27 antibody (manufactured by Beckman Coulter Inc.), and cells added with RD1 labeled mouse anti-human CD45RA antibody/FITC labeled mouse anti-human CCR7 antibody/PC5 labeled mouse anti-human CD62L antibody (manufactured by Beckman Coulter Inc.) were prepared. After addition of each antibody, incubation was carried out on ice for 30 minutes. After the incubation, the cells were washed with DPBS containing 0.1% BSA (hereinafter referred to as 0.1% BSA/DPBS), and suspended again in DPBS. The ratio of CCR7^+CD45RA^+ cells, CD27^+CD45RA^+ cells, CD28^+CD45RA^+ cells, CD62L^+CD45RA^+ cells, and CCR7^+CD62L^+CD45RA^+ cells of each cell population was calculated. […]
With respect to the cells on days 10 and 14 of culture, prepared in item (2) of Example 5, analysis of CCR7^+CD45RA^+ cells, CD62L^+CD45RA^+ cells, and CCR7^+CD62L^+CD45RA^+ cells was performed similarly to the method described in item (4) of Example 2.

PBMC of cancer patient = experiment: Expansion of lymphocytes from PBMC of cancer patients in plate/flask, OKT3 alone versus OKT3 and CH-296; assay type: cell-based, human
Description: The OKT3 and the CH-296 were immobilized to the culture equipment used in the following experiment. That is, an ACD-A solution containing OKT3 (final concentration: 5 μg/mL) and CH-296 (final concentration: 25 μg/mL) was added to a 12-well cell culture plate (manufactured by Corning Inc.) in a volume of 0.45 mL/well each, and incubated at 37° C. for 5 hours in 5% CO2. On this occasion, a group wherein only OKT3 was immobilized was set. The ACD-A solution containing the OKT3 or the OKT3 and the CH-296 was removed from the culture equipment by aspiration just before use, washed twice with DPBS and once with the RPMI 1640 medium, and then subjected to each experiment.
The PBMC of 0.53×10^6 cells derived from the cancer patient and separated in item (1) of Example 2 was suspended in 5.3 mL of 0.6% plasma containing KBM551 or 0.2% HSA/GT-T503, and added to the plate immobilized with the OKT3 or the OKT3 and the CH-296 as prepared in item (1) of Example 5. IL-2 was added thereto so as to have a final concentration of 200 U/mL and the mixture was incubated at 37° C. under 5% CO2 (on day 0 of culture). On day 4 of culture, the cell solution in each well was suspended, and a part of the suspension was diluted 8.3-fold using 0.6% plasma-containing KBM551 or 0.2% HSA/GT-T503. Then, 7.8 mL of the diluted solution was transferred to a 25 cm^2-cell culture flask (manufactured by Corning Inc.) to which nothing was immobilized, and added with IL-2 to each final concentration of 200 U/mL. The culture was continued, and on day 7, a plasma free KBM551 or a 0.2% HSA/GT-T503 was added to the culture solution in each group in an equivalent amount to dilute two-fold, and then added with IL-2 so as to have each final concentration of 200 U/mL. On day 10 of culture, the cell solution in each group was diluted two-fold using a plasma free KBM551 or a 0.2% HSA/GT-T503, and 15.6 mL each of the diluted solution was transferred to a fresh standing 25 cm^2-cell culture flask to which nothing was immobilized. IL-2 was added thereto so as to have a final concentration of 200 U/mL in each group. On days 10 and 14 from the start of culture, the number of viable cells was counted by the trypan blue staining method and an expansion fold was calculated by comparing the number of counted cells with the number of cells at the start of culture.

[4] = system: expanded lymphocytes derived from a human healthy donor; experiment: Resistance to anticancer agents, WST-1 GI50 on cultured lymphocytes of a human healthy donor; assay type: cell-based; conditions: Homo sapiens, Lymphocyte
Description: (§1) On the other hand, the IL-2/5HRPMI was added to the control group in 50 μL/well each.
(§2) These culture plates were incubated at 37° C. for 20 hours in the presence of 5% CO2. After the incubation, WST-1 (Premix WST-1 Cell Proliferation Assay System, manufactured by Takara Bio Inc.) was added in 20 μL/well each to each well of the plate, and incubated in the presence of 5% CO2 at 37° C. for 4 hours. The plates after the incubation were centrifuged at 500×g at room temperature for 5 minutes. After the centrifugation, 100 μL of the supernatant was collected from each well, and the absorbance was measured at an absorption wavelength of 450 nm and a control wavelength of 630 nm [hereinafter referred to as the absorbance (450 nm-630 nm)] using a microplate reader (manufactured by Bio-Rad Laboratories, Inc., Model Number 680XR), and then the specific absorbance (450 nm-630 nm) was calculated according to the following formula.
(§3) Specific absorbance (450 nm-630 nm)=Absorbance of Test Cell Addition Group (450 nm-630 nm)−Absorbance of Control Group (450 nm-630 nm) Formula 2: […]
Here, a group where only OKT3 was immobilized to the culture equipment in the expansion of the lymphocytes was also set.
However, in the case of paclitaxel, a human AB type serum was used as a solvent for dilution, and for other drugs, 5HRPMI was used for dilution.

[5] = system: lymphocytes derived from cancer patient No. PT009 expanded with OKT3 and CH-296; experiment: Resistance to anticancer agents, WST-1 GI50 on cultured lymphocytes of cancer patient No. PT009; assay type: cell-based, human; conditions: day 10 of culture with OKT3 and CH-296, 20 hours with drug
Description: After that, the suspension was stained by the trypan blue staining method to calculate the viable cell count, and then subjected to each experiment.
as §1, §2, §3

[6] = PBMC of patient PT003, 0.2% HSA/GT-T503
[7] = PBMC of patient PT006 (breast cancer), KBM551
[8] = PBMC of patient PT008 (laryngeal cancer), KBM551
[9] = PBMC of patient PT012 (rectal cancer), KBM551

Compound: OKT3: Anti-CD3 monoclonal antibody (OKT3), immobilized alone to the culture equipment as initial stimulation
- Cytotoxicity (%) ([1]; lymphocytes of patient PT012, 10 days of lymphocyte expansion): 15.2%
- Cytotoxicity (%) ([1]; lymphocytes of patient PT012, 14 days of lymphocyte expansion): 27.6%
- Expansion Rate (Fold) ([2]; lymphocytes of patient PT012, 10 days of lymphocyte expansion, responder:stimulator 1:0): x3.0 Fold
- Expansion Rate (Fold) ([2]; lymphocytes of patient PT012, 10 days of lymphocyte expansion, responder:stimulator 1:1): x5.3 Fold
- Expansion Rate (Fold) ([2]; lymphocytes of patient PT012, 14 days of lymphocyte expansion, responder:stimulator 1:0): x1.1 Fold
- Expansion Rate (Fold) ([2]; lymphocytes of patient PT012, 14 days of lymphocyte expansion, responder:stimulator 1:1): x3.7 Fold
- CCR7^+CD45RA^+ (%) On Day 10 from Start of Culture [3, 6]: 13.3%
- CCR7^+CD62L^+CD45RA^+ (%) On Day 10 from Start of Culture [3, 6]: 13.1%
- CD62L^+CD45RA^+ (%) On Day 10 from Start of Culture [3, 6]: 52.5%
- CCR7^+CD45RA^+ (%) On Day 10 from Start of Culture ([3]; PBMC of patient PT003, KBM551): 5.4%
- CCR7^+CD62L^+CD45RA^+ (%) On Day 10 from Start of Culture ([3]; PBMC of patient PT003, KBM551): 5.1%
- CD62L^+CD45RA^+ (%) On Day 10 from Start of Culture ([3]; PBMC of patient PT003, KBM551): 50.9%
- CCR7^+CD45RA^+ (%) On Day 10 from Start of Culture ([3]; PBMC of patient PT006, KBM551): 24.9%
- CCR7^+CD45RA^+ (%) On Day 14 from Start of Culture ([3]; PBMC of patient PT006, KBM551): 36.9%
- CCR7^+CD62L^+CD45RA^+ (%) On Day 10 from Start of Culture ([3]; PBMC of patient PT006, KBM551): 24.6%
- CCR7^+CD62L^+CD45RA^+ (%) On Day 14 from Start of Culture ([3]; PBMC of patient PT006, KBM551): 36.7%
- CD62L^+CD45RA^+ (%) On Day 10 from Start of Culture ([3]; PBMC of patient PT006, KBM551): 79.2%
- CD62L^+CD45RA^+ (%) On Day 14 from Start of Culture ([3]; PBMC of patient PT006, KBM551): 75.7%
- CCR7^+CD45RA^+ (%) On Day 10 from Start of Culture ([3]; PBMC of patient PT008, KBM551): 4.6%
- CCR7^+CD45RA^+ (%) On Day 14 from Start of Culture ([3]; PBMC of patient PT008, KBM551): 4.2%
- CCR7^+CD62L^+CD45RA^+ (%) On Day 10 from Start of Culture ([3]; PBMC of patient PT008, KBM551): 4.2%
- CCR7^+CD62L^+CD45RA^+ (%) On Day 14 from Start of Culture ([3]; PBMC of patient PT008, KBM551): 3.9%
- CD62L^+CD45RA^+ (%) On Day 10 from Start of Culture ([3]; PBMC of patient PT008, KBM551): 53.0%
- CCR7^+CD45RA^+ (%) On Day 10 from Start of Culture ([3]; PBMC of patient PT012, KBM551): 19.4%
- CCR7^+CD45RA^+ (%) On Day 14 from Start of Culture ([3]; PBMC of patient PT012, KBM551): 25.0%
- CCR7^+CD62L^+CD45RA^+ (%) On Day 10 from Start of Culture ([3]; PBMC of patient PT012, KBM551): 17.1%
- CCR7^+CD62L^+CD45RA^+ (%) On Day 14 from Start of Culture ([3]; PBMC of patient PT012, KBM551): 23.4%
- CD62L^+CD45RA^+ (%) On Day 10 from Start of Culture ([3]; PBMC of patient PT012, KBM551): 56.0%
- CD62L^+CD45RA^+ (%) On Day 14 from Start of Culture ([3]; PBMC of patient PT012, KBM551): 43.4%
- Expansion Fold (Fold) On Day 10 from Start of Culture (PBMC of cancer patient; PBMC of patient PT003 (breast cancer), 0.2% HSA/GT-T503): ×200 Fold
- Expansion Fold (Fold) On Day 10 from Start of Culture (PBMC of cancer patient; PBMC of patient PT003 (breast cancer), KBM551): ×193 Fold
- Expansion Fold (Fold) On Day 10 from Start of Culture (PBMC of cancer patient; [7]): ×202 Fold
- Expansion Fold (Fold) On Day 14 from Start of Culture (PBMC of cancer patient; [7]): ×382 Fold
- Expansion Fold (Fold) On Day 10 from Start of Culture (PBMC of cancer patient; [8]): ×119 Fold
- Expansion Fold (Fold) On Day 14 from Start of Culture (PBMC of cancer patient; [8]): ×292 Fold
- Expansion Fold (Fold) On Day 10 from Start of Culture (PBMC of cancer patient; [9]): ×281 Fold
- Expansion Fold (Fold) On Day 14 from Start of Culture (PBMC of cancer patient; [9]): ×723 Fold

Compound: COc1cccc2c1C(=O)c1c(O)c3c(c(O)c1C2=O)C[C@@](O)(C(=O)CO)C[C@@H]3O[C@H]1C[C@H](N)[C@H](O)[C@H](C)O1 [Doxorubicin Hydrochloride, doxorubicin hydrochloride]
- GI50 ([4]; healthy donor lymphocytes expanded with OKT3 + CH-296, read-out: GI50 (μg/mL) Initial Stimulation OKT3 + CH-296): 0.41 µg/mL
- GI50 ([4]; healthy donor lymphocytes expanded with OKT3 alone, read-out: GI50 (μg/mL) Initial Stimulation OKT3): 0.25 µg/mL
- GI50 ([5]; Homo sapiens, Lymphocyte, read-out: GI50): 0.5 mg/L

Compound: N.N.[Cl][Pt][Cl] [Cisplatin, cisplatin]
- GI50 [5]: 3.7 mg/L

Reference: patent US20100247579A1, “THERAPEUTIC AGENT FOR CANCER” (priority 2007, published 2010)
